Consider seven compounds from paper PMC8386747, “Structure–activity relationship, in vitro and in vivo evaluation of novel dienyl sulphonyl fluorides as selective BuChE inhibitors for the treatment of Alzheimer's disease” (Journal of Enzyme Inhibition and Medicinal Chemistry, 2021).

“Also recorded” adds a separate entry of the source.

The target in one data set is T1, AChE from electric eel (Electrophorus electricus, UniProt O42275).
T1 construct: assays were performed on AChE from electric eel (C3389-500UN; Sigma); purchased Sigma C3389-500UN
T1 sequence (O42275 24-633): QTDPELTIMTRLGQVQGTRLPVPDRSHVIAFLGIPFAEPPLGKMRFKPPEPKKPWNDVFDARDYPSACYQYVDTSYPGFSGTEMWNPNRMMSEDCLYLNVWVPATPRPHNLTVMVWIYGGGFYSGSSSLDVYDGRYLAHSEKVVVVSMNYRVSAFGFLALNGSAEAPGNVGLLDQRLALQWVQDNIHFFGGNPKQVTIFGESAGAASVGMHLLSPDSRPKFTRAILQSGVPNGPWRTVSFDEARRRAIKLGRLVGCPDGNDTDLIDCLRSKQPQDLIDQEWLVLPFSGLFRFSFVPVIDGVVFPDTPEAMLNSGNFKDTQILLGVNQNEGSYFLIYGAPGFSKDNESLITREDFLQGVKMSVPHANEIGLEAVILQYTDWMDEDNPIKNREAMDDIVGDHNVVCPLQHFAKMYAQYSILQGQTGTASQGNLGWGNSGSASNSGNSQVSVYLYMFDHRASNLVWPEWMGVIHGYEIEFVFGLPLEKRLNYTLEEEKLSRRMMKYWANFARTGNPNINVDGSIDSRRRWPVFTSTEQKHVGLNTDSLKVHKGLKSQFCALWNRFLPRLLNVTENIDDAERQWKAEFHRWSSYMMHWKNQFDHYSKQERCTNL
Briefly: EeAChE inhibition assay (Ellman's method). The format is biochemical. A general note: Ellman's reagent forms a yellow product with free thiols.

The target in the next data set is T2, BuChE from equine serum (Equus caballus, UniProt P81908).
T2 construct: BuChE from equine serum (C4290-1KU; Sigma); purchased Sigma C4290-1KU; host or cells: equine serum
T2 sequence (P81908 whole entry): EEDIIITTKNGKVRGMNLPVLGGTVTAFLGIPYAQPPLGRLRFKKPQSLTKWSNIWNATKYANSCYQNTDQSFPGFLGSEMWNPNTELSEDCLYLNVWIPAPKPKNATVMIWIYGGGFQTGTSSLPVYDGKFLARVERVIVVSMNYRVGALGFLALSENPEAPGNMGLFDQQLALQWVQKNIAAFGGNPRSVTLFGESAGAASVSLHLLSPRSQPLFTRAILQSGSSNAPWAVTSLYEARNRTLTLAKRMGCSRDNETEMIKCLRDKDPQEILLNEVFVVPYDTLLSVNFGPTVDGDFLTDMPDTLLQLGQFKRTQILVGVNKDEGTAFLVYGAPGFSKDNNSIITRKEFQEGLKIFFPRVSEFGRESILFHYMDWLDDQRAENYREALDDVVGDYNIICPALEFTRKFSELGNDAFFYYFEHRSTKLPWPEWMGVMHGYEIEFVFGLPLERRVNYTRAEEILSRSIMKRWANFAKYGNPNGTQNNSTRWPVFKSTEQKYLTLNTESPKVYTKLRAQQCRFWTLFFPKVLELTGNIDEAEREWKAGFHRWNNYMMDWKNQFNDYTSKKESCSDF
The data set is described as follows: eqBuChE inhibition assay (Ellman's method). Format: biochemical. The conditions noted are these: BuChE from horse serum.

Data set [1] addresses T3, recombinant human AChE (hAChE) (Homo sapiens, UniProt P22303).
T3 construct: purchased Sigma C1682
The data set is described as follows: hAChE inhibition assay (Ellman's assay). The format is biochemical.
Description: The solution was diluted to 5 concentrations of 200, 100, 10, 1 and 0.1 µM in ethanol. Measurements were performed using 96-well plates. Buffer (40 µL), sample at a series of concentrations (10 µL), AChE (10 µL), and dibutyl succinate (20 µL) were successively added. The mixture was then incubated for 5 min at 37 °C. Then, 20 µL of ACh or BuCh were added and the reaction started. […] For the blank value, 10 µL of water was used instead of the inhibitor solution. The activity of the inhibitor was expressed as a logarithmic plot of the percentage of enzyme activity (with 100% as the reference) versus the concentration of the compound. IC50 values were determined graphically from inhibition curves (log inhibitor concentration versus percent inhibition).

For data set [2], the target named is T4, BuChE from human serum (hBuChE) (Homo sapiens, UniProt P06276).
T4 construct: BuChE from human serum (hBuChE); purchased Sigma B4186; host or cells: human serum
T4 sequence (P06276 29-602): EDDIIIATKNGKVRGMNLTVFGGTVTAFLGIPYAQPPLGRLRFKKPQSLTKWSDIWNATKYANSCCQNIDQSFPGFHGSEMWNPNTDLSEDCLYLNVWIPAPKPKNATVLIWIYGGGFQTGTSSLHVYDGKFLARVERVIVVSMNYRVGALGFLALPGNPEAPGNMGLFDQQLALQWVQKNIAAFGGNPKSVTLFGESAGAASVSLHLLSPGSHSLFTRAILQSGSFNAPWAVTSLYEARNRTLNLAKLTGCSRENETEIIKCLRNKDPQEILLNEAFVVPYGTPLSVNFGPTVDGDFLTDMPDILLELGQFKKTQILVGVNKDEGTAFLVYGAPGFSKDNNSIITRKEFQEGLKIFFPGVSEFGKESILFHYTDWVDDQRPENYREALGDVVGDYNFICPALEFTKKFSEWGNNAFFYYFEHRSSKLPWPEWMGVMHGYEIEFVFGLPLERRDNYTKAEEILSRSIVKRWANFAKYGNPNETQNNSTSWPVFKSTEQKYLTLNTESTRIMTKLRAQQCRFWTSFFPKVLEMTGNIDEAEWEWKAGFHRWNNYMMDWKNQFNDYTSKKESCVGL
Briefly: hBuChE inhibition assay (Ellman's assay). The format is biochemical. Particulars: mean ± SEM.
Description: DTNB solution (5 µM) was prepared with 0.1 M pH 8 PBS. The test compound was dissolved at a concentration of 2 × 1 0^−1 M in DMSO and stored at temperatures ranging from −20 to 4 °C as a stock solution. The solution was diluted to 5 concentrations of 200, 100, 10, 1 and 0.1 µM in ethanol. Measurements were performed using 96-well plates. Buffer (40 µL), sample at a series of concentrations (10 µL), AChE (10 µL), and dibutyl succinate (20 µL) were successively added. The mixture was then incubated for 5 min at 37 °C. Then, 20 µL of ACh or BuCh were added and the reaction started. […] For the blank value, 10 µL of water was used instead of the inhibitor solution. The activity of the inhibitor was expressed as a logarithmic plot of the percentage of enzyme activity (with 100% as the reference) versus the concentration of the compound. IC50 values were determined graphically from inhibition curves (log inhibitor concentration versus percent inhibition).

The next data set deals with T5, eqBuChE (Equus caballus, UniProt P81908).
T5 construct: BuChE from equine serum (C4290-1KU; Sigma); purchased Sigma C4290-1KU; host or cells: equine serum
T5 sequence (P81908 whole entry): as the sequence (P81908 whole entry) above
The data set is described as follows: Kinetic study of eqBuChE inhibition. Format: biochemical, horse. The method, then: Kinetic studies were performed with the same test conditions, using six concentrations of substrate (0.1‒1 mM) and four concentrations of inhibitor (0‒0.08 mM). The apparent inhibition constants and kinetic parameters were calculated in the “Enzyme Kinetics” module of Prism8. The effect of compound A10 concentration on the catalytic activity of BuChE at 37 °C was investigated. Assay conditions were same as described in the assay protocol except that the final concentration of enzyme was varied (0‒0.72 U/mL). Concentrations of compound A10 were 0, 0.02, 0.04, 0.08 µM respectively, for the determination of reversible as well as irreversible binding of inhibitors at enzyme.

Data set [3] has as its system human normal hepatocyte L02. Briefly: Cytotoxicity MTT assay on L02 cells. Particulars: 24 h. The format is cell-based. Here is the method:
(§1) The cytotoxic effect was detected by MTT colorimetric assay. Human hepatoblastoma cells HepG2 and human normal hepatocyte L02 were maintained at 37 °C in a 5% humidified incubator containing 10% foetal bovine serum, 100 U/mL penicillin and […] streptomycin. HepG2 cells and L02 cells were seeded in 96-well plates at 1 × 10^4 cells per well. After cell culture for 24 h, different compounds were diluted in DMEM for 24 h. […] of 5 mg/mL MTT reagent was added for incubation for 4 h. After 4 h, the cell culture medium was removed and […] of DMSO was added to dissolve formazan. The optical density was measured at 492 nm (OD492). Cell viability was calculated from three independent experiments. The density of formazan formed in blank group was set as 100% of viability. Cell viability (%) ¼ compound (OD492/blank (OD492) ×100%

Data set [4] concerns human hepatoblastoma cells HepG2. The data set is described as follows: Cytotoxicity MTT assay on HepG2 cells. The format is cell-based. Particulars: 24 h. Here is the method: as §1
(In general: Tetrazolium dyes change colour on reduction, which living cells bring about.)

The subject of the next data set is PC12 cells. Briefly: Neuroprotection assay against H2O2 damage. Format: cell-based. The conditions noted are these: PC12, 100 µM H2O2 (model 47.3%), not given.
The subject of a further data set is ICR mice. The data set is described as follows: In vivo acute toxicity evaluation. Set-up: species or system mouse. Here is the method:
[…]. Compound A10 was suspended in a mixture of DMSO, PEG 400 and physiological saline (10/50/40, v/v/v). After fasting for 8‒12 h, the mice were intragastrically administered with the preparation or test compound A10 1.0 g/kg on the first day. The behaviour, appearance and body weight changes of the mice were observed and recorded for 2 weeks. The body weights of the mice in the control group and experimental group were compared and summarised with GraphPadPrism8.0 software.

Data set [5] concerns Aβ1-42-induced cognitive dysfunction. The data set is described as follows: Morris water maze in Aβ1-42-induced cognitive impairment model. The format is in vivo, mouse. Particulars: mice; for effect on Aβ1-42-induced cognitive dysfunction (MWM): Aβ1-42 10 µg icv. Here is the method: All experiments were performed according to the National Institutes of Health Guide for the Care and Use of Laboratory Animals. The Measures for the Care and Treatment of Laboratory Animals were approved by the Animal Care and Use Committee of Anhui Medical University. Male ICR mice were used in the animal centre of Anhui Medical University (Hefei). Male mice (18‒24 g) aged 6‒8 weeks, 10 mice per cage, room temperature 22 ± 2 °C, light/dark (12:12 h) cycle. These animals had access to food and water prior to testing. The ambient temperature and relative humidity (50%) of the room remained consistent throughout all tests. Behavioural experiments: MWM was used for cognitive function, and mice were randomly selected for behavioural experiments. Each experimental group consisted of 8‒10 mice/dose. The experimental time was from 08:00 to 14:00, and the mice were sacrificed by cervical dislocation immediately after the end of the experiment. […]. Aβ1-42 aggregation was induced by dissolving the Aβ1-42 peptide in DMSO as a stock solution of 5 mM and incubating it in saline at a final concentration of 2 mg/mL for 24 h at 37 °C.
The behavioural study was a water maze experimental behavioural study on days 10 − 15, including a 5-day learning and memory training, and a test assessment on day 6. MWM consists of a water-filled pool (grey, circular, 1.20 m in diameter, 0.60 m in height) and a platform with adjustable height and movable position. The pool was divided into four equal quadrants (compass position: NE, NW, SE, SW) using a computerised video tracking system (SMART, version 3.0; Panlab, Spain). The pool was filled with water, generally about 48 cm below the edge, to prevent animals from jumping out, and the water temperature was maintained at 22 ± 1 °C. […] The time to reach the hidden platform (i.e. escape latency), the distance to reach the hidden platform, the distance in the target (NW) area, and the average speed were recorded. […]

A further data set concerns Aβ1-42. The format is in vivo, mouse. Particulars: mice, Aβ1-42 icv; 10 mg/kg po; vs model group.
The conditions of data set [6]: PAMPA-BBB class. A general note: In PAMPA a lipid-coated filter parts donor from acceptor wells.
Description: (§2) The 96-well UV plate (COSTAR) was manufactured by Corning Corporation, USA, and the commercially available drugs and test compounds were initially dissolved in DMSO at a concentration of 20 mg/mL. The solution was then diluted 200-fold with PBS (pH 7.4 ± 0.1)/EtOH (70/30, v/v) solution to a final concentration of 100 µg/mL.
(§3) The test compound was dissolved in DMSO at 5 mg/mL and diluted 200-fold with universal buffer (final concentration 25 µg/mL) to prepare the secondary stock solution; 200 µL of the secondary stock solution was added to the donor well; the acceptor plate was coated with 4 µL of 20 mg/mL dodecyl porcine polar brain, and then, 200 µL of pH 7.4 universal buffer was added to the acceptor well; the acceptor plate was carefully placed on the donor plate to form a “sandwich” and maintained for 18 h; the drug concentrations in the acceptor, donor and reference wells were determined using a UV microplate reader; the experiment was repeated three times, and the concentrations of the test compound in the donor and acceptor wells were measured using a UV plate spectral reader (PerkinElmer VICT or Nivo, Finland). In at least three independent experiments, each sample was analysed at three wavelengths in a four well.
Another data set is described as follows: in vitro. Particulars: PAMPA.
A further data set deals with male ICR mice. The data set is described as follows: In vivo hepatotoxicity evaluation.
The conditions of data set [7]: PAMPA-BBB, reported data from the reference; cited from earlier work.
In the next data set the test system is BACE-1. On the set-up: method as in PMID 28749667, PMID 26696252. Particulars: cited from earlier work.
A further data set relates to GSK-3β. On the set-up: method as in PMID 28749667, PMID 26696252. Particulars: read-out: GSK-3μ IC50; cited from earlier work.
For the next data set, the system named is BuChE. Set-up: method as in PMID 31136894. The conditions noted are these: cited from earlier work.
[8] abbreviates: pH 7.4, Pe×10^-6cm/s Exp. value, PAMPA-BBB, three independent experiments.
[9] abbreviates: 30 mg/kg intragastric, 8, 22 and 36 h.

T3 sequence (P22303 32-614): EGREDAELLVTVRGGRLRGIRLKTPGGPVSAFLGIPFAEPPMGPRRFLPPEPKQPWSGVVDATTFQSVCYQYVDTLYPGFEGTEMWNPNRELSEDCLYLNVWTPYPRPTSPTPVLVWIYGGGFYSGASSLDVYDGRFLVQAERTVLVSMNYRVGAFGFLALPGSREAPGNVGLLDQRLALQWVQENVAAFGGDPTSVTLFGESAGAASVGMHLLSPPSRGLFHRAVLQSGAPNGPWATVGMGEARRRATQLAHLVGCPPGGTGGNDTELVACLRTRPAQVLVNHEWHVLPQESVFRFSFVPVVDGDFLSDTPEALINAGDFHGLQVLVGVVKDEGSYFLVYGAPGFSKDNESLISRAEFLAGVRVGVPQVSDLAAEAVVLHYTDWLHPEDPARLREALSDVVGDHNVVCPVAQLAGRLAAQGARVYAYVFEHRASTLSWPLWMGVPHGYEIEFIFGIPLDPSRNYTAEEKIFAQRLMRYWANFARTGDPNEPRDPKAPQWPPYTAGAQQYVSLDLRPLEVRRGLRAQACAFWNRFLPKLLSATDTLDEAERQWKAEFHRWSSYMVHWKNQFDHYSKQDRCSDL
Description for AChE from electric eel: (§4) According to the Ellman’s method, assays were performed on AChE from electric eel (C3389-500UN; Sigma) and BuChE from equine serum (C4290-1KU; Sigma). The experiment was performed in 48-well plates in a final volume of 500 µL. Each well contained 0.036 U/mL of eeAChE or eqBuChE, and 0.1 M pH 8 PBS. They were pre-incubated for 20 min at different compound concentrations at 37 °C. […] The DTNB produces the yellow anion 5-thio-2-nitrobenzoic acid along with the enzymatic degradation of ACh or BuCh. Changes in absorbance were measured at 410 nm after 20 min in a PerkinElmer VICTOR Nivo reader. The IC50 values were calculated graphically from inhibition curves (log inhibitor concentration vs percent of inhibition). A control experiment was performed under the same conditions without inhibitor and the blank contained buffer, DMSO, DTNB, and substrate.
Description for BuChE from equine serum: as §4
Description for PC12 cells: Then, 100 µM H2O2 was added as a cytotoxic stimulus, and the culture was continued for 24 h in fresh medium containing this drug. Cell survival was measured by MTT assay after 24 h. The cells were incubated with 20 µL of 5 mg/mL MTT reagent for 4 h. After 4 h, the cell culture medium was removed, and 150 µL of DMSO was added to dissolve formazan. […] Results were adjusted for OD measured in blank.
Description for in vitro: as §2, §3
Description for male ICR mice: The combination was administered intragastrically at a dose of 30 mg/kg body weight and the same amount of vehicle (po). Heparinised serum was collected from the retrobulbar plexus at 8, 22, and 36 h after administration for hepatotoxicity evaluation. The activities of alanine aminotransferase (ALT) and aspartate aminotransferase (AST), indicators of liver injury, were measured with corresponding kits (EF551 and EF550 for ALT, EH027 and EH548 for AST). […] After the last collection of post-globular blood, mice were sacrificed and livers were taken for immunohistochemical morphological observation. We isolated two 3-mm sections of each liver from the hilum to the edge of the left lateral lobe using an ultra-thin semi-automatic microtome (LeicaRM2245, Germany), immediately placed them in 10% buffered formaldehyde, fixed them for 2 days, and embedded them in paraffin blocks using a paraffin-embedding station (LeicaEG1150H, Germany). Subsequently, five µM sections were prepared from these paraffin sections, deparaffinized, stained with haematoxylin and eosin or using the periodic acid-Schiff glycogen staining method.

Take `COc1ccccc1C=CC=C(Br)S(=O)(=O)F` [Compound A10]: the inhibition (in general, how much of the control response was suppressed) at 20 µM came out at 40.8 ± 3.3% on AChE from electric eel (read-out: AChE % inhibition at 20 µM, AChE from electric eel, 20 µM, na = no inhibitory activity at 20 µM) and 49.7 ± 2.7% in data set [1]. Besides, the IC50 (usually the concentration that gives 50% inhibition) against BuChE from equine serum (mean ± SEM) was 21 nM; in data set [2], 3620 ± 320 nM. Also, the “type of BuChE inhibition” value on eqBuChE (Lineweaver–Burk plot, eqBuChE) is given as “mixed competitive; also recorded: mixed inhibition”. In addition, at eqBuChE (enzyme activity vs enzyme concentration, 0–0.08 µM inhibitor), the “reversibility of BuChE inhibition” value is “reversible”. The Ki (as a rule, a measure of affinity in units of concentration, obtained from inhibition or displacement) at eqBuChE (eqBuChE, Lineweaver–Burk secondary plot, read-out: dissociation constant Ki) was 29 nM. Moreover, the cell survival rate was 87.1% in data set [3] (50 µM); “did not decrease” in data set [3] (10 and 25 µM); 85.6% in data set [4] (50 µM); “did not decrease” in [4] (10 and 25 µM); 63.3% in the data set with PC12 cells (first (lower) of the A10 concentrations); 71.8% in the data set with PC12 cells (second (higher) of the A10 concentrations). In addition, in the data set with ICR mice (1.0 g/kg intragastric), the “general condition, appearance and activity” value is “no significant change in appearance and activity”. In addition, in the data set on ICR mice (ICR mice, 1.0 g/kg intragastric, 14 days), the “difference of body weight changes vs vehicle group” value is “not significant”. The tolerability in vivo entry in the data set on ICR mice (ICR mice, single intragastric dose 1.0 g/kg, 14 days) is on record as “well tolerated”. In addition, the “body weight gain during treatment” value in data set [5] (10 mg/kg po Day 3 to Day 14) is reported as “did not affect”. In addition, the “effect on Aβ1-42-induced cognitive dysfunction (MWM)” value in [5] (10 mg/kg po Day 3 to Day 14, 10 mg/kg) is “significantly improved; also recorded: improved the cognitive impairment”. For the same compound, the “decrease of brain Aβ1-42 peptides” value with Aβ1-42 is reported as 20.6%. Moreover, the BBB penetration result in [6] was “CNS+ (“CNS +” (high BBB permeation): Pe (× 10^‒6 cm/s) >4.0)”. Further, the Papp (in general, the rate of passage across a membrane or cell layer, normalised by area and donor concentration) in “in vitro” (pH 7.4, Pe, PAMPA-BBB) came out at 13.7 ×10⁻⁶ cm/s; in “in vitro” (setting [8]) it was 13.4 ×10⁻⁶ cm/s. Further, the “serum ALT vs vehicle group” value in the data set with male ICR mice (setting [9]) was “no significant difference”. The “serum AST vs vehicle group” value with male ICR mice (setting [9]) is on record as “no significant difference”. Moreover, the liver histomorphology result in the data set on male ICR mice (30 mg/kg, 36 h after administration) is reported as “didn’t show central necrosis or significant steatosis”.
With `COc1cc2c(cc1OC)C(=O)C(CC1CCN(Cc3ccccc3)CC1)C2` (stereo not shown) [Donepezil, donepezil, reference compound], in [5] (15 mg/kg po Day 3 to Day 14), the “effect on Aβ1-42-induced cognitive dysfunction (MWM)” value is given as “significantly improved”.
Consider `CN1C(C(=O)Nc2ccccn2)=C(O)c2ccccc2S1(=O)=O` [Piroxicam, reference compound], for which, in data set [6], the BBB penetration entry is on record as “CNS+ (“CNS +” (high BBB permeation): Pe (× 10^‒6 cm/s) >4.0)”. The “Pe×10^-6cm/s BibL. value” in data set [7] is reported as 9.3 ×10^-6cm/s. Besides, in “in vitro” (setting [8]), the Papp was found to be 9.87 ×10⁻⁶ cm/s.
For `COc1cc(/C=C/C(O)=C/C(=O)/C=C/c2ccc(OCc3ccccc3)cc2)ccc1O` [curcumin derivative], the IC50 in the data set on BACE-1 is 970 nM; in the data set on GSK-3β, 900 nM.
`Clc1cccc(Cl)c1N=C1NCCN1` [Clonidine, reference compound]: in data set [7], the “Pe×10^-6cm/s BibL. value” is on record as 5.3 ×10^-6cm/s. This compound gave a Papp in the data set “in vitro” (pH 7.4, Pe×10^-6cm/s Exp. value) of 7.85 ×10⁻⁶ cm/s.
On to `O=C1c2cc(NS(=O)(=O)c3ccccc3OC(F)(F)F)ccc2NC2C3Nc4ccccc4C3CCN12` (stereo not shown) [Rutaecarpine-6n], for which, in the data set on BuChE, the IC50 was 3600 nM.
Compound `O=S(=O)(F)C(Br)=CC=Cc1ccc(Cl)nc1` [Compound A18] had an IC50 against AChE from electric eel of 79 ± 2 nM. In addition, the inhibition at 20 µM at BuChE from equine serum (read-out: BuChE % inhibition at 20 µM, 20 µM) was determined as 42.8 ± 3.6%; in [1] it was 14.3 ± 0.9%.
